Data taken from patent US10214584B2, “Therapeutic pharmaceutical composition employing anti-SLC6A6 antibody” (ORDER-MADE MEDICAL RESEARCH INC., priority 2014, dated 2019).

Key:
Format in all cases: cell-based, human
Colo320-Mock = assay: Ratio of SP cells upon addition of taurine, Colo320-Mock; conditions: taurine 0.05-5 mM, FIG. 10
Protocol: (§1) After being transformed in the same manner as shown in Example 8(1) above, the cells were detached on the second day with DISSOCIATION BUFFER (Invitrogen). The cells were stained at 37° C. for 1 hour with a solution prepared to contain 10 μg/mL Hoechst 33342 in PBS(−), followed by analysis using FACS Canto II and a Violet laser (excitation wavelength: 407 nm). Moreover, to identify an SP fraction, an additional experiment was conducted in which verapamil serving an inhibitor of drug efflux transporters was added at a concentration of 30 μg/mL.
(§2) For this analysis, Colo320 cells (which are human colorectal cancer cells) were engineered to overexpress SLC6A6 and cultured for 2 days in a medium supplemented with taurine at a concentration of 0.05 mM, 0.1 mM, 0.5 mM, 1 mM or 5 mM, and then analyzed for SP cells in the same manner as shown in Example 1(3).

Colo320-SLC6A6-OEx = assay: Ratio of SP cells upon addition of taurine, Colo320-SLC6A6-OEx
Protocol: as §1, §2

[1] = test system: SW480 cells (SP and MP fractions); assay: FACS staining of SP and MP fractions of SW480 cells; conditions: SW480, verapamil 30 μg/mL
Protocol: Moreover, to identify an SP fraction, an additional experiment was conducted in which verapamil serving an inhibitor of drug efflux transporters was added at a concentration of 30 μg/mL.
SLC6A6 expression was analyzed for the SP fraction and non-SP fraction (i.e., major population (MP) fraction) of SW480 cells, which are human colorectal cancer cells.

## NCCS(=O)(=O)O [taurine]
Colo320-Mock
  number of SP cells: increased in a manner dependent on the added concentration of taurine
Colo320-SLC6A6-OEx; 5 mM taurine
  increase of ratio of SP cells compared to the absence of taurine: about 2.5 fold
Colo320-SLC6A6-OEx; 5 mM taurine, cultured 2 days (17.0% in the absence of taurine)
  ratio of SP cells: 26.7%
Colo320-SLC6A6-OEx; taurine 0.05-5 mM, FIG. 10
  number of SP cells: increased in a manner dependent on the added concentration of taurine

## COc1ccc(CCN(C)CCCC(C#N)(c2ccc(OC)c(OC)c2)C(C)C)cc1OC (centres unmarked) [verapamil]
[1]
  SP cells in the presence of verapamil: no SP cells were observed
